Source: PubChem BioAssay AID248 (DTP/NCI, 2004)
Where “and” joins values, the source holds several entries; their conditions need not be identical. Equal values may be shown once. Toxic doses and inconclusive results are not listed. Rule as the data show it: active = T/C of 150% or more; inactive = T/C below 125%.

Test system: L1210 leukemia ip in BDF1 mice, survival T/C
Assay: NCI In Vivo Anticancer Drug Screen. Data for tumor model L1210 Leukemia (intraperitoneal) in B6D2F1 (BDF1) mice
Details: higher = longer survival
Summary of the method: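 Mice bearing the transplanted tumor received compound or vehicle. Survival of the treated group was divided by that of the vehicle-treated control group to give the ratio.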

Measured: T/C

O=NN(CCCl)C(=O)NCCCl
inactive: endpoint: mean survival time, dose: 0.09 mg/kg/injection, schedule: Q01DX009 (ip), vehicle: saline 96 % of control | endpoint: mean survival time, dose: 0.09 mg/kg/injection, schedule: Q01DX009 (oral), vehicle: saline 100 % of control | endpoint: mean survival time, dose: 0.09 mg/kg/injection, schedule: Q## X024 (oral), vehicle: saline 102 % of control | endpoint: mean survival time, dose: 0.18 mg/kg/injection, schedule: Q01DX005 (ip), vehicle: saline 94 % of control | endpoint: mean survival time, dose: 0.18 mg/kg/injection, schedule: Q01DX009 (ip), vehicle: saline 101 % of control | endpoint: mean survival time, dose: 0.18 mg/kg/injection, schedule: Q01DX009 (oral), vehicle: saline 102 % of control | endpoint: mean survival time, dose: 0.18 mg/kg/injection, schedule: Q## X008 (ip), vehicle: saline 102 % of control | endpoint: mean survival time, dose: 0.18 mg/kg/injection, schedule: Q## X024 (oral), vehicle: saline 98 % of control | endpoint: mean survival time, dose: 0.32 mg/kg/injection, schedule: Q01DX001 (ip), vehicle: other 98 % of control | endpoint: mean survival time, dose: 0.36 mg/kg/injection, schedule: Q01DX Z (ip), vehicle: carboxymethylcellulose (CMC) 104 % of control | endpoint: mean survival time, dose: 0.37 mg/kg/injection, schedule: Q01DX001 (ip), vehicle: saline 104 % of control | endpoint: mean survival time, dose: 0.37 mg/kg/injection, schedule: Q01DX005 (ip), vehicle: saline 103 % of control | endpoint: mean survival time, dose: 0.37 mg/kg/injection, schedule: Q01DX005 (oral), vehicle: saline 93 % of control | endpoint: mean survival time, dose: 0.37 mg/kg/injection, schedule: Q01DX009 (ip), vehicle: saline 101 % of control | endpoint: mean survival time, dose: 0.37 mg/kg/injection, schedule: Q01DX009 (oral), vehicle: saline 97 % of control | endpoint: mean survival time, dose: 0.37 mg/kg/injection, schedule: Q01DX009 (sc), vehicle: saline 97 % of control | endpoint: mean survival time, dose: 0.37 mg/kg/injection, schedule: Q01DX015 (ip), vehicle: saline 115 % of control | endpoint: mean survival time, dose: 0.37 mg/kg/injection, schedule: Q## X003 (ip), vehicle: saline 107 % of control | endpoint: mean survival time, dose: 0.37 mg/kg/injection, schedule: Q## X008 (ip), vehicle: saline 109 % of control | endpoint: mean survival time, dose: 0.37 mg/kg/injection, schedule: Q## X024 (ip), vehicle: saline 110 % of control | endpoint: mean survival time, dose: 0.37 mg/kg/injection, schedule: Q## X024 (oral), vehicle: saline 100 % of control | endpoint: mean survival time, dose: 0.45 mg/kg/injection, schedule: Q01DX009 (ip), vehicle: saline + alcohol 99 % of control and 107 % of control | endpoint: mean survival time, dose: 0.63 mg/kg/injection, schedule: Q01DX001 (ip), vehicle: other 107 % of control | endpoint: mean survival time, dose: 0.73 mg/kg/injection, schedule: Q01DX Z (ip), vehicle: carboxymethylcellulose (CMC) 107 % of control | endpoint: mean survival time, dose: 0.75 mg/kg/injection, schedule: Q01DX001 (ip), vehicle: saline 105 % of control | endpoint: mean survival time, dose: 0.75 mg/kg/injection, schedule: Q01DX001 (sc), vehicle: saline 105 % of control | endpoint: mean survival time, dose: 0.75 mg/kg/injection, schedule: Q01DX005 (ip), vehicle: saline 108 % of control | endpoint: mean survival time, dose: 0.75 mg/kg/injection, schedule: Q01DX005 (oral), vehicle: saline 101 % of control | endpoint: mean survival time, dose: 0.75 mg/kg/injection, schedule: Q01DX009 (oral), vehicle: saline 116 % of control | endpoint: mean survival time, dose: 0.75 mg/kg/injection, schedule: Q01DX009 (sc), vehicle: saline 104 % of control | endpoint: mean survival time, dose: 0.75 mg/kg/injection, schedule: Q## X003 (ip), vehicle: saline 108 % of control | endpoint: mean survival time, dose: 0.75 mg/kg/injection, schedule: Q## X008 (ip), vehicle: saline 114 % of control | endpoint: mean survival time, dose: 0.75 mg/kg/injection, schedule: Q## X024 (oral), vehicle: saline 113 % of control | endpoint: mean survival time, dose: 1.0 mg/kg/injection, schedule: Q01DX Z (oral), vehicle: saline 117 % of control | endpoint: mean survival time, dose: 1.0 mg/kg/injection, schedule: Q04DX002 (ip), vehicle: saline + alcohol 105 % of control and 107 % of control | endpoint: mean survival time, dose: 1.0 mg/kg/injection, schedule: Q04DX004 (ip), vehicle: saline 106 % of control | endpoint: mean survival time, dose: 1.25 mg/kg/injection, schedule: Q01DX001 (ip), vehicle: other 101 % of control | endpoint: mean survival time, dose: 1.5 mg/kg/injection, schedule: Q01DX001 (ip), vehicle: saline 107 % of control | endpoint: mean survival time, dose: 1.5 mg/kg/injection, schedule: Q01DX001 (sc), vehicle: saline 107 % of control | endpoint: mean survival time, dose: 1.5 mg/kg/injection, schedule: Q01DX005 (oral), vehicle: saline 103 % of control | endpoint: mean survival time, dose: 1.5 mg/kg/injection, schedule: Q## X003 (ip), vehicle: saline 112 % of control | endpoint: mean survival time, dose: 1.75 mg/kg/injection, schedule: Q07DX Z (oral), vehicle: saline 105 % of control | endpoint: mean survival time, dose: 2.0 mg/kg/injection, schedule: Q01DX001 (ip), vehicle: Klucel (hydroxypropylcellulose) (HPC) 110 % of control | endpoint: mean survival time, dose: 2.0 mg/kg/injection, schedule: Q01DX001 (ip), vehicle: distilled water + alcohol 107 % of control | endpoint: mean survival time, dose: 2.0 mg/kg/injection, schedule: Q01DX001 (ip), vehicle: other 107 % of control and 111 % of control | endpoint: mean survival time, dose: 2.0 mg/kg/injection, schedule: Q01DX006 (iv), vehicle: saline 115 % of control | endpoint: mean survival time, dose: 2.0 mg/kg/injection, schedule: Q04DX002 (ip), vehicle: saline + alcohol 114 % of control | endpoint: mean survival time, dose: 2.0 mg/kg/injection, schedule: Q04DX004 (ip), vehicle: saline 118 % of control | endpoint: mean survival time, dose: 2.5 mg/kg/injection, schedule: Q01DX001 (ip), vehicle: other 114 % of control | endpoint: mean survival time, dose: 3.0 mg/kg/injection, schedule: Q01DX001 (ip), vehicle: saline 112 % of control | endpoint: mean survival time, dose: 3.0 mg/kg/injection, schedule: Q03DX Z (oral), vehicle: saline 117 % of control | endpoint: mean survival time, dose: 3.0 mg/kg/injection, schedule: Q## X003 (oral), vehicle: saline 112 % of control | endpoint: mean survival time, dose: 3.12 mg/kg/injection, schedule: Q01DX001 (ip), vehicle: saline 101 % of control and 106 % of control | endpoint: mean survival time, dose: 3.5 mg/kg/injection, schedule: Q07DX Z (oral), vehicle: saline 111 % of control | endpoint: mean survival time, dose: 5.0 mg/kg/injection, schedule: Q07DX003 (ip), vehicle: saline 104 % of control | endpoint: mean survival time, dose: 6.25 mg/kg/injection, schedule: Q01DX001 (ip), vehicle: saline 108 % of control and 110 % of control | endpoint: mean survival time, dose: 6.75 mg/kg/injection, schedule: Q03HX032 (ip), vehicle: saline + alcohol 103 % of control | endpoint: mean survival time, dose: 6.75 mg/kg/injection, schedule: Q## X032 (ip), vehicle: saline + alcohol 103 % of control | endpoint: mean survival time, dose: 12.0 mg/kg/injection, schedule: Q## X Z (ip), vehicle: saline 103 % of control | endpoint: mean survival time, dose: 12.5 mg/kg/injection, schedule: Q01DX001 (ip), vehicle: saline 118 % of control | endpoint: mean survival time, dose: 16.0 mg/kg/injection, schedule: Q01DX009 (ip), vehicle: carboxymethylcellulose (CMC) 102 % of control | endpoint: mean survival time, dose: 18.0 mg/kg/injection, schedule: Q## X006 (ip), vehicle: saline 116 % of control | endpoint: mean survival time, dose: 24.0 mg/kg/injection, schedule: Q01DX005 (ip), vehicle: saline 106 % of control | endpoint: mean survival time, dose: 24.0 mg/kg/injection, schedule: Q01DX005 (oral), vehicle: saline 119 % of control | endpoint: mean survival time, dose: 24.0 mg/kg/injection, schedule: Q01DX006 (ip), vehicle: saline 109 % of control | endpoint: mean survival time, dose: 24.0 mg/kg/injection, schedule: Q01DX009 (ip), vehicle: saline 117 % of control | endpoint: mean survival time, dose: 24.0 mg/kg/injection, schedule: Q01DX009 (oral), vehicle: saline 116 % of control | endpoint: mean survival time, dose: 24.0 mg/kg/injection, schedule: Q01DX009 (sc), vehicle: saline 117 % of control | endpoint: mean survival time, dose: 36.0 mg/kg/injection, schedule: Q01DX006 (ip), vehicle: saline 98 % of control | endpoint: mean survival time, dose: 40.0 mg/kg/injection, schedule: Q04DX004 (ip), vehicle: saline 94 % of control | endpoint: mean survival time, dose: 48.0 mg/kg/injection, schedule: Q01DX001 (ip), vehicle: Klucel (hydroxypropylcellulose) (HPC) 116 % of control | endpoint: mean survival time, dose: 48.0 mg/kg/injection, schedule: Q01DX006 (ip), vehicle: saline 94 % of control | endpoint: mean survival time, dose: 48.0 mg/kg/injection, schedule: Q## X024 (ip), vehicle: saline 119 % of control | endpoint: mean survival time, dose: 62.0 mg/kg/injection, schedule: Q04DX002 (ip), vehicle: saline + alcohol 107 % of control and 111 % of control | endpoint: mean survival time, dose: 64.0 mg/kg/injection, schedule: Q01DX Z (oral), vehicle: saline 94 % of control | endpoint: mean survival time, dose: 79.0 mg/kg/injection, schedule: Q01DX001 (oral), vehicle: saline 118 % of control | endpoint: mean survival time, dose: 88.0 mg/kg/injection, schedule: Q01DX001 (ip), vehicle: other 116 % of control | endpoint: mean survival time, dose: 96.0 mg/kg/injection, schedule: Q03DX Z (oral), vehicle: saline 108 % of control | endpoint: mean survival time, dose: 112.0 mg/kg/injection, schedule: Q07DX Z (oral), vehicle: saline 106 % of control | endpoint: mean survival time, dose: 128.0 mg/kg/injection, schedule: Q01DX001 (ip), vehicle: Klucel (hydroxypropylcellulose) (HPC) 106 % of control | endpoint: mean survival time, dose: 128.0 mg/kg/injection, schedule: Q01DX001 (ip), vehicle: other 98 % of control | endpoint: mean survival time, dose: 256.0 mg/kg/injection, schedule: Q01DX001 (ip), vehicle: Klucel (hydroxypropylcellulose) (HPC) 96 % of control | endpoint: mean survival time, dose: 256.0 mg/kg/injection, schedule: Q01DX001 (ip), vehicle: other 104 % of control | endpoint: median survival time, dose: 0.75 mg/kg/injection, schedule: Q01DX009 (ip), vehicle: saline 105 % of control | endpoint: median survival time, dose: 1.25 mg/kg/injection, schedule: Q01DX009 (ip), vehicle: saline 100 % of control and 112 % of control | endpoint: median survival time, dose: 24.0 mg/kg/injection, schedule: Q01DX009 (ip), vehicle: saline 95 % of control | endpoint: median survival time, dose: 30.0 mg/kg/injection, schedule: Q01DX005 (ip), vehicle: saline + alcohol 94 % of control and 102 % of control | endpoint: median survival time, dose: 30.0 mg/kg/injection, schedule: Q01DX009 (ip), vehicle: saline + alcohol 93 % of control
